Measurements as given in US10221163B2 (priority 2015, dated 2019).
Like-named read-outs stand apart in the source and are kept apart here.

Legend:
[1] = system: Pseudomonas aeruginosa efflux+ (MB9798), IMP-1; type: cell-based; details: concentration restoring susceptibility to imipenem at 2 μg/mL in the presence of a class A, C, D serine β-lactamase inhibitor closely related to relebactam
Outline: (§1)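 P. aeruginosa PAO1-derived IMP-1 strains, efflux+ MB9798 and efflux− MB9799, tested by standard microbroth MIC with imipenem and/or ceftazidime fixed, usually at CLSI breakpoint, plus fixed class A/C β-lactamase inhibitor against AmpC. Inhibitor titrated; concentration restoring susceptibility recorded; MB9798/MB9799 fold difference indicates efflux.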

[2] = system: Pseudomonas aeruginosa efflux− (MB9799), IMP-1; type: cell-based; details: concentration restoring susceptibility to imipenem at 2 μg/mL in the presence of a class A, C, D serine β-lactamase inhibitor closely related to relebactam
Outline: as §1

[3] = system: Pseudomonas aeruginosa MB9798 vs MB9799; details: ratio MITC95 PA_9798/MITC95 PA_9799
Outline: as §1

[4] = system: Serratia marcescens expressing IMP-1 (CL5741); type: cell-based; details: with imipenem 1 μg/ml; 95% inhibition of bacterial growth
Outline: (§2)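 Growth by absorbance after 22–24 h at 35°C defined the read-out, with imipenem fixed at 1 μg/ml alongside compound. Inocula came from overnight blood-agar colonies at 35°C, resuspended in saline and diluted 1:100 in 1.1×CAMHB.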

[5] = system: Escherichia coli expressing NDM-1 (CLB30005, CLB30016); type: cell-based; details: with imipenem 1 μg/ml; 95% inhibition of bacterial growth
Outline: as §2

[6] = system: Klebsiella pneumoniae expressing VIM-1 (IHMA599644); type: cell-based; details: with imipenem 1 μg/ml; 95% inhibition of bacterial growth
Outline: as §2

IMP-1 = IMP-1 (Serratia marcescens, UniProt P52699); test: biochemical; type: biochemical; details: fluorescence assay, CCF2-FA substrate, 2 pM enzyme, 2 hours at 25° C.; read-out: IMP-1 IC50
Outline: (§3)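 Fluorescence assay, CCF2-FA substrate (cephalosporin core linking 7-hydroxycoumarin to fluorescein); inhibitor + MBL + substrate, 2 h, 25° C. IC50 by 4-parameter fit, semi-log plot.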

NDM-1 = NDM-1 (Klebsiella pneumoniae, UniProt C7C422); test: biochemical; type: biochemical; details: fluorescence assay, CCF2-FA substrate, 1 pM enzyme, 2 hours at 25° C.; read-out: NDM-1 IC50
Outline: as §3

VIM-1 = VIM-1 (Pseudomonas aeruginosa (strain ATCC 15692 / DSM 22644 / CIP 104116 / JCM 14847 / LMG 12228 / 1C / PRS 101 / PAO1), UniProt A0A0F7KYQ8); test: biochemical; details: CCF2-FA substrate, 30 pM enzyme, 2 hours at 25° C.
Outline: as §3

[7] = fluorescence assay, read-out: VIM-1 IC50

Sequence of NDM-1 (C7C422 whole entry, looked up, species assumed): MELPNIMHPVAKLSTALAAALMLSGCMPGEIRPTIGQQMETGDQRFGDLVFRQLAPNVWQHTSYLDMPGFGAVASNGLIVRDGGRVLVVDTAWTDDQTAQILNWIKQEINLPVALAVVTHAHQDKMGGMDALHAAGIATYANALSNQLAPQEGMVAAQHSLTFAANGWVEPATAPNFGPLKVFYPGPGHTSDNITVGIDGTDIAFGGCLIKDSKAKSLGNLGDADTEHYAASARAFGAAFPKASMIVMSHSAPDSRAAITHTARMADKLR
Sequence of IMP-1 (P52699 whole entry, looked up, species assumed): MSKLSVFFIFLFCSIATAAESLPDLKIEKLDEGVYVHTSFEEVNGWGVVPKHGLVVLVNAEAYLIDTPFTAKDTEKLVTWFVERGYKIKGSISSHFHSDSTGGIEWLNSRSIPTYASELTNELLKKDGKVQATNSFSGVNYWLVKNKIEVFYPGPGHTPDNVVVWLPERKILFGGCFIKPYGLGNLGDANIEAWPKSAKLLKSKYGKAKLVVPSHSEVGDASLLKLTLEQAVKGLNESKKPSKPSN

| SMILES | P. aeruginosa expressing IMP-1, efflux + (MB9798) MITC95 [1] [µM] | P. aeruginosa expressing IMP-1, efflux − (MB9799) MITC95 [2] [µM] | Efflux ratio [3] | Serratia marcescens expressing IMP-1 (CL5741) MITC95 [4] [µM] | Escherichia coli expressing NDM-1 (CLB30016) MITC95 [5] [µM] | Klebsiella pneumoniae expressing VIM-1 (IHMA599644) MITC95 [6] [µM] | IC50 (IMP-1) [nM] | IC50 (NDM-1) [nM] | IC50 (VIM-1; VIM-1 IC50, fluorescence assay) [nM] | IC50 (VIM-1; [7]) [nM] |
| --- | --- | --- | --- | --- | --- | --- | --- | --- | --- | --- |
| Nc1nc2c(-c3ccc(S(=O)(=O)NCC4CCN4)c(S(N)(=O)=O)c3-c3nn[nH]n3)cccc2[nH]1 (stereo not drawn) [Example 207, 4-(2-amino-1H-benzo[d]imidazol-4-yl)-N1-(azetidin-2-ylmethyl)-3-(2H-tetrazol-5-yl)benzene-1,2-disulfonamide] | 3.125 | 1.563 | 2.00 | 1.563 | 3.125 | 3.125 | 0.999 | 0.274 | 0.69 | – |
| C[C@H](N)CC(=O)NS(=O)(=O)c1ccc(-c2cccc3[nH]c(N)nc23)c(-c2nn[nH]n2)c1S(N)(=O)=O [Example 208, (S)-3-amino-N-((4-(2-amino-1H-benzo[d]imidazol-4-yl)-2-sulfamoyl-3-(2H-tetrazol-5-yl)phenyl)sulfonyl)butanamide] | 3.125 | 3.125 | 1.00 | 3.125 | 1.563 | 6.25 | 3.12 | 0.449 | – | 1.23 |
| Nc1ncccc1-c1ccc(S(=O)(=O)N[C@@H]2CCNC2)c(S(N)(=O)=O)c1-c1nn[nH]n1 [Example 209, (R)-4-(2-aminopyridin-3-yl)-N^1-(pyrrolidin-3-yl)-3-(2H-tetrazol-5-yl)benzene-1,2-disulfonamide] | 1.563 | 1.172 | 1.33 | 0.7813 | 0.293 | 1.563 | 3.1 | 0.148 | – | 0.177 |
| NCC(CN)NS(=O)(=O)c1ccc(-c2cccnc2N)c(-c2nn[nH]n2)c1S(N)(=O)=O [Example 210, 4-(2-aminopyridin-3-yl)-N1-(1,3-diaminopropan-2-yl)-3-(2H-tetrazol-5-yl)benzene-1,2-disulfonamide] | 3.125 | 1.563 | 2.00 | 0.7813 | 0.1953 | 3.125 | 1.5 | 0.126 | – | 0.197 |
| CC(C)(CN)NS(=O)(=O)c1ccc(-c2cccnc2N)c(-c2nn[nH]n2)c1S(N)(=O)=O [Example 211, N1-(1-amino-2-methylpropan-2-yl)-4-(2-aminopyridin-3-yl)-3-(2H-tetrazol-5-yl)benzene-1,2-disulfonamide] | 12.5 | 3.125 | 4.00 | 3.125 | 1.563 | 6.25 | 2.25 | 0.156 | – | 0.182 |
| NC[C@H](N)CNS(=O)(=O)c1ccc(-c2cccnc2N)c(-c2nn[nH]n2)c1S(N)(=O)=O [Example 213, (S)-4-(2-aminopyridin-3-yl)-N1-(2,3-diaminopropyl)-3-(2H-tetrazol-5-yl)benzene-1,2-disulfonamide] | 3.125 | 1.563 | 2.00 | 0.7813 | 0.3906 | 1.563 | 1.54 | 0.0759 | – | 0.113 |
| Nc1ncccc1-c1ccc(S(=O)(=O)NC[C@@H](N)CO)c(S(N)(=O)=O)c1-c1nn[nH]n1 [Example 214, (R)-N1-(2-amino-3-hydroxypropyl)-4-(2-amino-pyridin-3-yl)-3-(2H-tetrazol-5-yl)benzene-1,2-disulfonamide] | 12.5 | 1.563 | 8.00 | 1.563 | 0.7813 | 3.125 | 8.49 | 0.566 | – | 0.732 |
| NC[C@H](CO)NS(=O)(=O)c1ccc(-c2cccnc2N)c(-c2nn[nH]n2)c1S(N)(=O)=O [Example 215, (R)-N1-(1-amino-3-hydroxypropan-2-yl)-4-(2-aminopyridin-3-yl)-3-(2H-tetrazol-5-yl)benzene-1,2-disulfonamide] | 1.563 | 1.563 | 1.00 | 0.3906 | 0.1953 | 3.125 | 2.12 | 0.175 | – | 0.222 |
| Nc1ncccc1-c1ccc(S(=O)(=O)N[C@H]2C[C@@H]2N)c(S(N)(=O)=O)c1-c1nn[nH]n1 [Example 216, N1-((1S)-2-amino-cyclopropyl)-4-(2-aminopyridin-3-yl)-3-(2H-tetrazol-5-yl)benzene-1,2-disulfonamide] | 6.25 | 1.563 | 4.00 | 0.7813 | 0.1953 | 3.125 | 1.83 | 0.237 | 0.269 | – |
| Nc1ccc(-c2ccc(S(=O)(=O)NCCc3ncc[nH]3)c(S(N)(=O)=O)c2-c2nn[nH]n2)cn1 [Example 218, N^1-(2-(1H-imidazol-2-yl)ethyl)-4-(6-aminopyridin-3-yl)-3-(2H-tetrazol-5-yl)benzene-1,2-disulfonamide] | 25 | 1.563 | 15.99 | 0.7813 | 0.1953 | 3.125 | 0.694 | 0.786 | 0.549 | – |
| Nc1cncc(-c2ccc(S(=O)(=O)N[C@@H]3CCNC3)c(S(N)(=O)=O)c2-c2nn[nH]n2)c1 [Example 219, (R)-4-(5-aminopyridin-3-yl)-N1-(pyrrolidin-3-yl)-3-(2H-tetrazol-5-yl)benzene-1,2-disulfonamide] | 1.563 | 1.563 | 1.00 | 1.563 | 1.563 | 1.563 | 1.93 | 0.366 | – | 0.209 |
| NS(=O)(=O)c1c(S(=O)(=O)N[C@@H]2CCNC2)ccc(-c2cccnc2N2CCNCC2)c1-c1nn[nH]n1 [Example 220, (R)-4-(2-(piperazin-1-yl)pyridin-3-yl)-N1-(pyrrolidin-3-yl)-3-(2H-tetrazol-5-yl)benzene-1,2-disulfonamide] | 6.25 | 1.563 | 4.00 | 3.125 | 1.563 | 1.563 | 35.8 | 1.57 | – | 0.442 |
